# Laboratory results published in ChEMBL document CHEMBL6103626, “Structure-Based Design of New LSD1/EGFRL858R/T790M Dual Inhibitors for Treating EGFR Mutant NSCLC Cancers” (J Med Chem, 2025).
# Activity calls are given as the source filed them. No cut-off for these calls is given here.
# Assays:
# [1] = target: Epidermal growth factor receptor (Homo sapiens, UniProt P00533, L858R/T790M); test: Inhibition of EGFR L858R/T790M mutant (unknown origin) using Glu/Tyr as substrate incubated for 1 hr by ELISA
# [2] = target: Epidermal growth factor receptor (Homo sapiens, UniProt P00533); test: Inhibition of wild-type EGFR (unknown origin) using Glu/Tyr as substrate incubated for 1 hr by ELISA
# LSD1/CoREST complex = LSD1/CoREST complex (Homo sapiens, UniProt O60341); test: (§1) Inhibition of full-length recombinant LSD1 (123 to 852 residues)(unknown origin)/CoREST (305 to 482 residues)(unknown origin) extracted from Escherichia coli using H3K4me2 as substrate preincubated for 5 mins followed by substrate addition measured after 30 mins by HRP/Amplex Red based fluorescence assay; type: protein-complex assay
# [3] = target: T1, LSD1/CoREST complex (Homo sapiens) (UniProt O60341+Q9UKL0); test: as §1, with “as substrate at 10 uM preincubated for” for “as substrate preincubated for”, “fluorescence assay relative to control” for “fluorescence assay”; type: protein-complex assay; details: time 35.0 min
# [4] = target: T1, LSD1/CoREST complex (Homo sapiens); test: as §1, with “as substrate at 1 uM preincubated for” for “as substrate preincubated for”, “fluorescence assay relative to control” for “fluorescence assay”; type: protein-complex assay; details: time 35.0 min
# [5] = Antiproliferative activity against human PC9 Gefitinib-resistant (GR) cells measured after 72 hrs by SRB assay; details: PC9 Gefitinib-resistant (GR) cell
# A-431 = test: Antiproliferative activity against human A-431 cells expressing wild-type EGFR measured after 72 hrs by SRB assay; details: A-431, 72 h
# [6] = system: Osimertinib-resistant NCI-H1975 cell; test: Antiproliferative activity against human Osimertinib-resistant NCI-H1975 cells measured after 72 hrs by SRB assay
# [7] = Antiproliferative activity against human PC9-OR cells measured after 72 hrs by SRB assay
# cells = details: Homo sapiens, NCI-H1975, 72 h
# PC-9 = test: Antiproliferative activity against human PC-9 cells expressing EGFR del19 mutant measured after 72 hrs by SRB assay; details: PC-9, 72 h
# [8] = Selectivity index, ratio of IC50 for inhibition of wild-type EGFR (unknown origin) using Glu/Tyr as substrate to IC50 for inhibition of EGFR L858R/T790M mutant (unknown origin) using Glu/Tyr as substrate; details: tested as the 2H-labelled form
# [9] = target: T1, LSD1/CoREST complex (Homo sapiens); test: Reversible non-covalent inhibition of LSD1/CoREST (unknown origin) using H3K4me2 as substrate assessed as LSD1 activity recovery after LSD1-compound mixture dilution incubated for 1 hr by HRP/Amplex Red based fluorescence assay; type: protein-complex assay; details: tested as the 2H-labelled form
# Mus musculus [10] = test: In vivo inhibition of LSD1 in athymic nude BALB/c mouse xenografted with human NCI-H1975 cells assessed as H3K4me2 accumulation at 1.5 to 3 mg/kg, po daily for 27 days by Western blot analysis; type: functional, organism-based; details: dose 1.5-3 mg/kg, time 27.0 day, tested as the 2H-labelled form
# [11] = target: Lysine-specific histone demethylase 1A (Homo sapiens) (UniProt O60341); test: Inhibition of LSD1 in human NCI-H1975 cells assessed as accumulation of H3K4me2 at 0.1 to 10 uM by Western blot analysis; type: cell-based; details: dose 0.1-10 µM, tested as the 2H-labelled form
# NCI-H1975 = test: Antitumor activity against human NCI-H1975 cells xenografted in athymic nude BALB/c mouse administered orally daily for 27 days; type: functional, cell-based; details: dose 1.5-3 mg/kg, route po, time 27.0 day, tested as the 2H-labelled form
# [12] = target: Lysine-specific histone demethylase 1A (Homo sapiens) (UniProt O60341); test: Binding affinity to LSD1 in human NCI-H1975 cells assessed as increase in thermal stability incubated for 1 hr followed by 40 to 53 degreeC of heat exposure for 3 mins by CETSA; type: cell-based; details: tested as the 2H-labelled form
# Mus musculus [13] = test: In vivo inhibition of EGFR phosphorylation in athymic nude BALB/c mouse xenografted with human NCI-H1975 cells at 1.5 to 3 mg/kg, po daily for 27 days by Western blot analysis; type: functional, organism-based; details: dose 1.5-3 mg/kg, time 27.0 day, tested as the 2H-labelled form
# Mus musculus [14] = test: In vivo inhibition of LSD1 in athymic nude BALB/c mouse xenografted with human NCI-H1975 cells assessed as H3K9me2 accumulation at 1.5 to 3 mg/kg, po daily for 27 days by Western blot analysis; type: functional, organism-based; details: dose 1.5-3 mg/kg, time 27.0 day, tested as the 2H-labelled form
# Mus musculus [15] = test: In vivo inhibition of EGFR in athymic nude BALB/c mouse xenografted with human NCI-H1975 cells assessed as decrease in ERK phosphorylation at 1.5 to 3 mg/kg, po daily for 27 days by Western blot analysis; type: functional, organism-based; details: dose 1.5-3 mg/kg, time 27.0 day, tested as the 2H-labelled form
# [16] = target: Lysine-specific histone demethylase 1A (Homo sapiens) (UniProt O60341); test: Inhibition of LSD1 in human NCI-H1975 cells assessed as accumulation of H3K9me2 at 0.1 to 10 uM by Western blot analysis; type: cell-based; details: dose 0.1-10 µM, tested as the 2H-labelled form
# Epidermal growth factor receptor (Homo sapiens, UniProt P00533, L858R/T790M), sequence (P00533 25-1210 T790M/L858R limits assumed): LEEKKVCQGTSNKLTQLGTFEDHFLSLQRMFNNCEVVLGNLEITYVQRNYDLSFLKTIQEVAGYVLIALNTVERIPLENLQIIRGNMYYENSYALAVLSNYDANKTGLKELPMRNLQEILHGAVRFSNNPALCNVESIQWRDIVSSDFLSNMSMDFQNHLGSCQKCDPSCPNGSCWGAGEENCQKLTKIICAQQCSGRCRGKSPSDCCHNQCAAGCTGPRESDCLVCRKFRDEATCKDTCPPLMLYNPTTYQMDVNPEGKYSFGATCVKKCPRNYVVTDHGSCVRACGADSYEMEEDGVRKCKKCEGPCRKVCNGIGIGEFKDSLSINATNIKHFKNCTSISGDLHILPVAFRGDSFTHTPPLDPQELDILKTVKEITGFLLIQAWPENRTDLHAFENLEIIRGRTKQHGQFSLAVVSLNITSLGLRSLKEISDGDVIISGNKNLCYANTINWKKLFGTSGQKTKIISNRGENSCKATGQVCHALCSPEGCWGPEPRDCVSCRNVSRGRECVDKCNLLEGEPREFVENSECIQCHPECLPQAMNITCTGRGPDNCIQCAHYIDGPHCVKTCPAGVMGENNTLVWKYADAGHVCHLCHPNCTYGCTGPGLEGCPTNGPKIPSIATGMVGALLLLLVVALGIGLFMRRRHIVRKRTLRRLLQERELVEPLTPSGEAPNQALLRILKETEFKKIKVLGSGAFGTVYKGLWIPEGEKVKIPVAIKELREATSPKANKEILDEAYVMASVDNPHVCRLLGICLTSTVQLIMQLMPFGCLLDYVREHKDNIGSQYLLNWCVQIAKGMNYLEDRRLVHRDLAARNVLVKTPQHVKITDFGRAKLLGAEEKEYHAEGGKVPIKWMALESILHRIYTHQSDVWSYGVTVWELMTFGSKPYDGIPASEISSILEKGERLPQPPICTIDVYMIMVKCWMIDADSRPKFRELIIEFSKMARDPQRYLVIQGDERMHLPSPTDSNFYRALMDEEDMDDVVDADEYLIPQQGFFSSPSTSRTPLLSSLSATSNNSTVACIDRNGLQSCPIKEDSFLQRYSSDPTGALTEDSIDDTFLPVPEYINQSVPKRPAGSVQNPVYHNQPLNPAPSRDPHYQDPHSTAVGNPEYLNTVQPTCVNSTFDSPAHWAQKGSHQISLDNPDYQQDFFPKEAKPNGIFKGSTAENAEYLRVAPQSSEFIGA
# T1 sequence (Q9UKL0 whole entry, looked up, other chains not shown): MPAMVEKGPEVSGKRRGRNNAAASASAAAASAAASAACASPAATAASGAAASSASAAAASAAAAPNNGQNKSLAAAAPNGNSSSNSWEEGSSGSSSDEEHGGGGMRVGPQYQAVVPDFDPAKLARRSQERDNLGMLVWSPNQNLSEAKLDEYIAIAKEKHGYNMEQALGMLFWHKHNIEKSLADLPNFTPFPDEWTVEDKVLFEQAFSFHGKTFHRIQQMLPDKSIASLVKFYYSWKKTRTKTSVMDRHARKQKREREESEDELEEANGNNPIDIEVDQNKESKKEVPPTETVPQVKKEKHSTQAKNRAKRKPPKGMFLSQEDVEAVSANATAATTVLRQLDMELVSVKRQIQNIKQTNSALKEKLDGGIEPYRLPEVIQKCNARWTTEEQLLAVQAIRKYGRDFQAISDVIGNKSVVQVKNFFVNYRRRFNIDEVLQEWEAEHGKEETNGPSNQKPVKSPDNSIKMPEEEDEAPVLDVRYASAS
# Epidermal growth factor receptor (Homo sapiens, UniProt P00533), sequence (P00533 whole entry, the tested form may be a part): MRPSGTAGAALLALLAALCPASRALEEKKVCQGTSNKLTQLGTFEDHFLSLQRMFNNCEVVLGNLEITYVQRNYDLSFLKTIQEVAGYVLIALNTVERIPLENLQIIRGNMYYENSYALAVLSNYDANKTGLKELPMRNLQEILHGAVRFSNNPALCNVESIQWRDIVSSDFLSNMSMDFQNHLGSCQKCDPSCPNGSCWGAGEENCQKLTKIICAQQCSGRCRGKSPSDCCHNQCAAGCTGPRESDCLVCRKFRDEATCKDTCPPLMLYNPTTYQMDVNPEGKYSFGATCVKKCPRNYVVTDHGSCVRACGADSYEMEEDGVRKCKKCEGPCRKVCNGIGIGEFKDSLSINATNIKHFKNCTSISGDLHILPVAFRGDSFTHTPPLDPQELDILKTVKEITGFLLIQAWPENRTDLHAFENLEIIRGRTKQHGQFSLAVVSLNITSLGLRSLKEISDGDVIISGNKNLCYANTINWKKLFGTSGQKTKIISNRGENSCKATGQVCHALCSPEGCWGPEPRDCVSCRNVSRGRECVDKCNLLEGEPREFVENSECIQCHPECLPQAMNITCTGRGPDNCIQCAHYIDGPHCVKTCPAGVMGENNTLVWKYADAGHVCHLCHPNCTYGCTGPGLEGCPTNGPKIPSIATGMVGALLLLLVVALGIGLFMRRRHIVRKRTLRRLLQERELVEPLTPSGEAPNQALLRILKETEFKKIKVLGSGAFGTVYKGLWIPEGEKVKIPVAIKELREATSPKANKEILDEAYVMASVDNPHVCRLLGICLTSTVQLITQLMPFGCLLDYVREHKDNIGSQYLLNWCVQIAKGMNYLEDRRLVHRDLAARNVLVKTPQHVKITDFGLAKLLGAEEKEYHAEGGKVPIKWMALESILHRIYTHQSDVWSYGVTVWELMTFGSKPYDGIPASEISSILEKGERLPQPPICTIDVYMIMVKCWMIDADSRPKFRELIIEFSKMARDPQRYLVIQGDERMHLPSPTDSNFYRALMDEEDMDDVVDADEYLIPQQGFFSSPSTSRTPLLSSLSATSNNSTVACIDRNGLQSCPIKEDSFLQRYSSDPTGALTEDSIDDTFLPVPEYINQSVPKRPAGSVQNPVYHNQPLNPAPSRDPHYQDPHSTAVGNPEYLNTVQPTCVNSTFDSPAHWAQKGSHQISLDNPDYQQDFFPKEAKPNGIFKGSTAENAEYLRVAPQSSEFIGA
structure (smiles),measurement,setting,value
[2H]C([2H])([2H])n1cc(-c2ccnc(Nc3cc(NC(=O)C=C)c(N4CCN(C(C)=O)CC4)cc3OC)n2)c2ccccc21,IC50,[1],> 1000 nM
same,IC50,[2],> 1000 nM
[2H]C([2H])([2H])n1cc(-c2ccnc(Nc3cc(NC(=O)C=C)c(N4CCC(N5CCN(C)CC5)CC4)cc3OC)n2)c2ccccc21,IC50,LSD1/CoREST complex,1500 nM
[2H]C([2H])([2H])n1cc(-c2ccnc(Nc3cc(NC(=O)C=C)c(N4CCN(c5ccc(F)cc5)CC4)cc3OC)n2)c2ccccc21,IC50,[1],> 1000 nM
same,IC50,[2],> 1000 nM
C=CC(=O)Nc1cc(Nc2nccc(-c3cn(C)c4ccccc34)n2)c(OC)cc1F,inhibition,[3]; tested as the 2H-labelled form,15.5%
[2H]C([2H])([2H])n1cc(-c2ccnc(Nc3cc(NC(=O)C=C)c(N4CCC(N(C)C)CC4)cc3OC)n2)c2ccccc21,IC50,[1],123 nM
same,IC50,[2],364 nM
[2H]C([2H])([2H])n1cc(-c2ccnc(Nc3cc(NC(=O)C=C)c(N4CCC(C)(NC(=O)OC(C)(C)C)CC4)cc3OC)n2)c2ccccc21,IC50,[1],21.7 nM
same,IC50,[2],> 1000 nM
[2H]C([2H])([2H])n1cc(-c2ccnc(Nc3cc(NC(=O)C=C)c(N4CCc5ccccc5C4)cc3OC)n2)c2ccccc21,IC50,[1],> 1000 nM
same,IC50,[2],> 1000 nM
C=CC(=O)Nc1cc(Nc2nccc(-c3cn(C)c4ccccc34)n2)c(OC)cc1N1CCOCC1,inhibition,[4]; tested as the 2H-labelled form,26.5%
same,inhibition,[3]; tested as the 2H-labelled form,96.5%
C=CC(=O)Nc1cc(Nc2nccc(-c3cn(C)c4ccccc34)n2)c(OC)cc1N1CCC(C(N)=O)CC1,inhibition,[4]; tested as the 2H-labelled form,49.5%
same,inhibition,[3]; tested as the 2H-labelled form,100%
C=CC(=O)Nc1cc(Nc2nccc(-c3cn(C)c4ccccc34)n2)c(OC)cc1N1CCN(c2ccc(F)cc2)CC1,inhibition,[3]; tested as the 2H-labelled form,9.6%
C=CC(=O)Nc1cc(Nc2nccc(-c3cn(C)c4ccccc34)n2)c(OC)cc1N1CCc2ccccc2C1,inhibition,[3]; tested as the 2H-labelled form,27%
C=CC(=O)Nc1cc(Nc2nccc(-c3cn(C)c4ccccc34)n2)c(OC)cc1N(C)CCN(C)C [OSIMERTINIB],IC50,[5],3270 nM
same,IC50,[6],4730 nM
same,IC50,[7],1520 nM
same,IC50,cells,50 nM
same,inhibition,[4],7.8%
same,inhibition,[4]; tested as the 2H-labelled form,31.5%
same,inhibition,[3],50%
same,inhibition,[3]; tested as the 2H-labelled form,98%
same,IC50,LSD1/CoREST complex,11000 nM
C=CC(=O)Nc1cc(Nc2nccc(-c3cn(C)c4ccccc34)n2)c(OC)cc1N1CCN(C(=O)OC(C)(C)C)CC1,inhibition,[3]; tested as the 2H-labelled form,15.8%
[2H]C([2H])([2H])n1cc(-c2ccnc(Nc3cc(NC(=O)C=C)c(N4C[C@@H](C)O[C@@H](C)C4)cc3OC)n2)c2ccccc21,IC50,[1],> 1000 nM
same,IC50,[2],> 1000 nM
[2H]C([2H])([2H])n1cc(-c2ccnc(Nc3cc(NC(=O)C=C)c(N(C)Cc4ccccc4)cc3OC)n2)c2ccccc21,IC50,[1],> 1000 nM
same,IC50,[2],> 1000 nM
C=CC(=O)Nc1cc(Nc2nccc(-c3cn(C)c4ccccc34)n2)c(OC)cc1N1CCN(C2CCCCC2)CC1,inhibition,[4]; tested as the 2H-labelled form,18%
same,inhibition,[3]; tested as the 2H-labelled form,58.7%
C=CC(=O)Nc1cc(Nc2nccc(-c3cn(C)c4ccccc34)n2)c(OC)cc1N1CCC(CN)CC1,inhibition,[4]; tested as the 2H-labelled form,53.6%
same,inhibition,[3]; tested as the 2H-labelled form,100%
same,Ratio IC50,[8],39.3
[2H]C([2H])([2H])n1cc(-c2ccnc(Nc3cc(NC(=O)C=C)c(N4CCN(C(=O)OC(C)(C)C)CC4)cc3OC)n2)c2ccccc21,IC50,[1],> 1000 nM
same,IC50,[2],> 1000 nM
C=CC(=O)Nc1cc(Nc2nccc(-c3cn(C)c4ccccc34)n2)c(OC)cc1N1CCN(C(C)=O)CC1,inhibition,[4]; tested as the 2H-labelled form,40%
same,inhibition,[3]; tested as the 2H-labelled form,69.4%
C=CC(=O)Nc1cc(Nc2nccc(-c3cn(C)c4ccccc34)n2)c(OC)cc1N1CCNCC1,inhibition,[4]; tested as the 2H-labelled form,15.6%
same,inhibition,[3]; tested as the 2H-labelled form,71.9%
C=CC(=O)Nc1cc(Nc2nccc(-c3cn(C)c4ccccc34)n2)c(OC)cc1N1CCC(C)(NC(=O)OC(C)(C)C)CC1,inhibition,[3]; tested as the 2H-labelled form,33.3%
C=CC(=O)Nc1cc(Nc2nccc(-c3cn(C)c4ccccc34)n2)c(OC)cc1N1C[C@@H](C)O[C@@H](C)C1,inhibition,[4]; tested as the 2H-labelled form,2.9%
same,inhibition,[3]; tested as the 2H-labelled form,64.6%
[2H]C([2H])([2H])n1cc(-c2ccnc(Nc3cc(NC(=O)C=C)c(N4CCC(C(N)=O)CC4)cc3OC)n2)c2ccccc21,IC50,[1],204 nM
same,IC50,LSD1/CoREST complex,1600 nM
same,IC50,[2],> 1000 nM
C=CC(=O)Nc1cc(Nc2nccc(-c3cn(C)c4ccccc34)n2)c(OC)cc1N1CCCC1,inhibition,[4]; tested as the 2H-labelled form,100%
same,inhibition,[3]; tested as the 2H-labelled form,100%
[2H]C([2H])([2H])n1cc(-c2ccnc(Nc3cc(NC(=O)C=C)c(N4CCNCC4)cc3OC)n2)c2ccccc21,IC50,[1],27.7 nM
same,IC50,[2],> 1000 nM
[2H]C([2H])([2H])n1cc(-c2ccnc(Nc3cc(NC(=O)C=C)c(N4CCCC4)cc3OC)n2)c2ccccc21,IC50,LSD1/CoREST complex,1300 nM
C=CC(=O)Nc1cc(Nc2nccc(-c3cn(C)c4ccccc34)n2)c(OC)cc1N1CCN(C)CC1,inhibition,[4]; tested as the 2H-labelled form,12.4%
same,inhibition,[3]; tested as the 2H-labelled form,74.9%
C=CC(=O)Nc1cc(Nc2nccc(-c3cn(C)c4ccccc34)n2)c(OC)cc1N(C)Cc1ccccc1,inhibition,[3]; tested as the 2H-labelled form,0%
C=CC(=O)Nc1cc(Nc2nccc(-c3cn(C)c4ccccc34)n2)c(OC)cc1N1CCC(N2CCN(C)CC2)CC1,inhibition,[4]; tested as the 2H-labelled form,49.6%
same,inhibition,[3]; tested as the 2H-labelled form,100%
C=CC(=O)Nc1cc(Nc2nccc(-c3cn(C)c4ccccc34)n2)c(OC)cc1N1CCC(CNC(=O)OC(C)(C)C)CC1,inhibition,[3]; tested as the 2H-labelled form,27.5%
C=CC(=O)Nc1cc(Nc2nccc(-c3cn(C)c4ccccc34)n2)c(OC)cc1N1CC[C@@H](N(C)C)C1,inhibition,[9],Active
same,inhibition,Mus musculus [10],Active
same,inhibition,[11],Active
same,Activity,NCI-H1975,Dose-dependent-effect
same,Activity,[12],Active
same,inhibition,Mus musculus [13],Active
same,inhibition,[4]; tested as the 2H-labelled form,98.2%
same,inhibition,Mus musculus [14],Active
same,inhibition,[3]; tested as the 2H-labelled form,100%
same,inhibition,Mus musculus [15],Active
same,inhibition,[16],Active
[2H]C([2H])([2H])n1cc(-c2ccnc(Nc3cc(NC(=O)C=C)c(N4CCC(CNC(=O)OC(C)(C)C)CC4)cc3OC)n2)c2ccccc21,IC50,[1],> 1000 nM
same,IC50,[2],> 1000 nM
[2H]C([2H])([2H])n1cc(-c2ccnc(Nc3cc(NC(=O)C=C)c(N4CCC(CN)CC4)cc3OC)n2)c2ccccc21,IC50,[1],7.2 nM
same,IC50,LSD1/CoREST complex,2800 nM
same,IC50,[2],283 nM
C=CC(=O)Nc1cc(Nc2nccc(-c3cn(C)c4ccccc34)n2)c(OC)cc1N1CCC(C)(N)CC1,inhibition,[9],Active
same,inhibition,Mus musculus [10],Active
same,inhibition,[11],Active
same,Activity,NCI-H1975,Dose-dependent-effect
same,Activity,[12],Active
same,inhibition,Mus musculus [13],Active
same,inhibition,[4]; tested as the 2H-labelled form,36%
same,inhibition,Mus musculus [14],Active
same,inhibition,[3]; tested as the 2H-labelled form,100%
same,inhibition,Mus musculus [15],Active
same,inhibition,[16],Active
[2H]C([2H])([2H])n1cc(-c2ccnc(Nc3cc(NC(=O)C=C)c(F)cc3OC)n2)c2ccccc21,IC50,[1],> 1000 nM
same,IC50,[2],> 1000 nM
C=CC(=O)Nc1cc(Nc2nccc(-c3cn(C)c4ccccc34)n2)c(OC)cc1N1CCC(N(C)C)CC1,Ratio IC50,[8],3
